Counter-ions that a name gives are not always drawn.
Target: SARS-CoV-2 Mac1 (Severe acute respiratory syndrome coronavirus 2, UniProt P0DTD1)
Assay: biochemical
Settings: for inhibition at 100 µM: read-out: %inhibition; for %inhibition: 100 µM, inhibitor

Row | Compound | inhibition at 100 µM [%] | %inhibition [%]
1 | CCOC(=O)[C@H](CCc1ccccc1)N[C@H]1CCc2ccccc2N(CC(=O)O)C1=O [Benazepril HCl] | 0 | 
2 | O=C(O)COc1nn(Cc2ccccc2)c2ccccc12 [Bendazac] | 3.85 | 
3 | NS(=O)(=O)c1cc2c(cc1C(F)(F)F)NC(Cc1ccccc1)NS2(=O)=O (stereo not drawn) [Bendroflumethiazide] | 0 | 
4 | CC(COc1ccccc1Cc1ccccc1)N1CCCCC1 (stereo not drawn) [Benproperine phosphate] | 0 | 
5 | NC(CO)C(=O)NNCc1ccc(O)c(O)c1O (stereo not drawn) [Benserazide HCl] | 7.42 | 
6 | O=C(O)c1ccc(NC(=O)[C@H](Cc2ccc(O)cc2)NC(=O)c2ccccc2)cc1 [Bentiromide] | 3.94 | 
7 | CCc1oc2ccccc2c1C(=O)c1cc(Br)c(O)c(Br)c1 [Benzbromarone] | 6.57 | 
8 | O=C(Cn1ccnc1[N+](=O)[O-])NCc1ccccc1 [Benznidazole] | 0 | 
9 | CCOC(=O)c1ccc(N)cc1 [Benzocaine hydrochloride] | 0 | 
10 | O=C(O)c1ccccc1 [Benzoic Acid] |  | 1.824
11 | NS(=O)(=O)c1cc2c(cc1Cl)N=C(CSCc1ccccc1)NS2(=O)=O [Benzthiazide] | 0 | 
12 | CN(C)CCCOc1nn(Cc2ccccc2)c2ccccc12 [Benzydamine HCl] | 4.5 | 
13 | OCc1ccccc1 [Benzyl alcohol] | 0 | 
14 | O=C(OCc1ccccc1)c1ccccc1 [Benzyl benzoate] | 0 | 
15 | CC1(C)S[C@@H]2[C@H](NC(=O)Cc3ccccc3)C(=O)N2[C@H]1C(=O)O [Benzylpenicillin potassium] |  | 8.229
16 | O=C(O)CCCN1CCC(O[C@@H](c2ccc(Cl)cc2)c2ccccn2)CC1 [Bepotastine Besilate] | 15 | 
17 | COc1ccc2cc3[n+](cc2c1OC)CCc1cc2c(cc1-3)OCO2 [Berberine Sulfate] |  | 0
18 | COc1ccc2cc3[n+](cc2c1OC)CCc1cc2c(cc1-3)OCO2 [Berberine chloride] |  | 8.063
19 | N[C@@H]1CCCCN(c2c(F)cc3c(=O)c(C(=O)O)cn(C4CC4)c3c2Cl)C1 [Besifloxacin HCl] | 0 | 
20 | CC1=C(/C=C/C(C)=C/C=C/C(C)=C/C=C/C=C(C)/C=C/C=C(C)/C=C/C2=C(C)CCCC2(C)C)C(C)(C)CCC1 [Beta Carotene] | 7.3 | 
21 | CNCCc1ccccn1 [Betahistine mesylate] | 0 | 
22 | C[N+](C)(C)CC(=O)O [Betaine] | 0 | 
23 | CCC(=O)OCC(=O)[C@@]1(OC(=O)CC)[C@@H](C)C[C@H]2[C@@H]3CCC4=CC(=O)C=C[C@]4(C)[C@@]3(F)[C@@H](O)C[C@@]21C [Betamethasone Dipropionate] | 5.5 | 
24 | CCCCC(=O)O[C@]1(C(=O)CO)[C@@H](C)C[C@H]2[C@@H]3CCC4=CC(=O)C=C[C@]4(C)[C@@]3(F)[C@@H](O)C[C@@]21C [Betamethasone Valerate] | 0 | 
25 | C[C@H]1C[C@H]2[C@@H]3CCC4=CC(=O)C=C[C@]4(C)[C@@]3(F)[C@@H](O)C[C@]2(C)[C@@]1(O)C(=O)CO [Betamethasone] |  | 1.437
26 | O=C(O)CCNC(=O)c1ccccc1 [Betamipron] | 7.69 | 

Row | Compound | inhibition at 100 µM [%] | %inhibition [%]
27 | CC(C)NCC(O)COc1ccc(CCOCC2CC2)cc1 (stereo not drawn) [Betaxolol HCl] |  | 10.86
28 | CC(C)NCC(O)COc1ccc(CCOCC2CC2)cc1 (stereo not drawn) [Betaxolol] |  | 0
29 | CC(C[N+](C)(C)C)OC(N)=O (stereo not drawn) [Bethanechol chloride] | 0 | 
30 | COc1ccc(NC(=O)c2ccc(C(=N)N(C)C)cc2)c(C(=O)Nc2ccc(Cl)cn2)c1 [Betrixaban maleate] |  | 3.06
31 | COc1ccc(NC(=O)c2ccc(C(=N)N(C)C)cc2)c(C(=O)Nc2ccc(Cl)cn2)c1 [Betrixaban] |  | 0
32 | COc1ccc(CCNCC(O)COc2cccc(C)c2)cc1OC (stereo not drawn) [Bevantolol hydrochloride] | 17.4 | 
33 | C=C(c1ccc(C(=O)O)cc1)c1cc2c(cc1C)C(C)(C)CCC2(C)C [Bexarotene] | 0 | 
34 | CC(C)(Oc1ccc(CCNC(=O)c2ccc(Cl)cc2)cc1)C(=O)O [Bezafibrate] | 9.85 | 
35 | C[C@@H](O)[C@H]1C(=O)N2C(C(=O)[O-])=C(SC3Cn4cnc[n+]4C3)[C@H](C)[C@H]12 (stereo partly drawn) [Biapenem] | 5.82 | 
36 | CC(O)(CS(=O)(=O)c1ccc(F)cc1)C(=O)Nc1ccc(C#N)c(C(F)(F)F)c1 (stereo not drawn) [Bicalutamide] | 0 | 
37 | c1ccc(-c2ccc(C(c3ccccc3)n3ccnc3)cc2)cc1 (stereo not drawn) [Bifonazole] | 37 | 
38 | CCOCCn1c(C2CCN(CCc3ccc(C(C)(C)C(=O)O)cc3)CC2)nc2ccccc21 [Bilastine] | 0 | 
39 | CCNC(=O)CCC/C=C\C[C@@H]1[C@@H](/C=C/[C@@H](O)CCc2ccccc2)[C@H](O)C[C@@H]1O [Bimatoprost] | 0 | 
40 | Cn1cnc2c(F)c(Nc3ccc(Br)cc3F)c(C(=O)NOCCO)cc21 [Binimetinib (MEK162, ARRY-162, ARRY-438162)] | 24 | 
41 | O=C(O)CCCC[C@@H]1SC[C@@H]2NC(=O)N[C@@H]21 [Biotin (Vitamin B7)] | 0 | 
42 | CC[C@H](NC(=O)[C@H](C)NC)C(=O)N1C[C@@H](O)C[C@H]1Cc1c(-c2[nH]c3cc(F)ccc3c2C[C@@H]2C[C@H](O)CN2C(=O)[C@H](CC)NC(=O)[C@H](C)NC)[nH]c2cc(F)ccc12 [Birinapant] | 3.17 | 
43 | CC(=O)Oc1ccc(C(c2ccc(OC(C)=O)cc2)c2ccccn2)cc1 [Bisacodyl] | 0 | 
44 | CC(C)NCC(O)COc1ccc(COCCOC(C)C)cc1 (stereo not drawn) [Bisoprolol fumarate] | 0 | 
45 | Oc1c(Cl)cc(Cl)cc1Sc1cc(Cl)cc(Cl)c1O [Bithionol] | 0 | 
46 | C[C@H](Oc1ccc(S(C)(=O)=O)cc1C(=O)N1CCN(c2ncc(C(F)(F)F)cc2F)CC1)C(F)(F)F [Bitopertin] | 0 | 
47 | Cc1c(N)nc([C@H](CC(N)=O)NC[C@H](N)C(N)=O)nc1C(=O)N[C@H](C(=O)N[C@H](C)[C@@H](O)[C@H](C)C(=O)N[C@H](C(=O)NCCc1nc(-c2nc(C(=O)NCCC[S+](C)C)cs2)cs1)[C@@H](C)O)[C@@H](O[C@@H]1O[C@@H](CO)[C@@H](O)[C@H](O)[C@@H]1O[C@H]1O[C@H](CO)[C@@H](O)[C@H](OC(N)=O)[C@@H]1O)c1cnc[nH]1 [Bleomycin sulfate] | 0 | 
48 | CC(C)(C)NC(=O)N[C@H](C(=O)N1C[C@H]2[C@@H]([C@H]1C(=O)NC(CC1CCC1)C(=O)C(N)=O)C2(C)C)C(C)(C)C (stereo partly drawn) [Boceprevir] |  | 2.103
49 | CC(C)C[C@H](NC(=O)[C@H](Cc1ccccc1)NC(=O)c1cnccn1)B(O)O [Bortezomib (PS-341)] | 54.2 | 
50 | COc1ccccc1Oc1c(NS(=O)(=O)c2ccc(C(C)(C)C)cc2)nc(-c2ncccn2)nc1OCCO [Bosentan Hydrate] | 0.962 | 
51 | COc1cc(Nc2c(C#N)cnc3cc(OCCCN4CCN(C)CC4)c(OC)cc23)c(Cl)cc1Cl [Bosutinib (SKI-606)] | 55.6 | 
52 | O=c1ccc2ccc(OCCCCN3CCN(c4cccc5sccc45)CC3)cc2[nH]1 [Brexpiprazole] | 0 | 

Row | Compound | inhibition at 100 µM [%] | %inhibition [%]
53 | Brc1c(NC2=NCCN2)ccc2nccnc12 [Brimonidine Tartrate] | 19.3 | 
54 | CCN[C@H]1CN(CCCOC)S(=O)(=O)c2sc(S(N)(=O)=O)cc21 [Brinzolamide] | 0 | 
55 | CCC[C@@H]1CC(=O)N([C@@H](CC)C(N)=O)C1 [Brivaracetam] | 24.6 | 
56 | O=c1[nH]c(=O)n([C@H]2C[C@H](O)[C@@H](CO)O2)cc1/C=C/Br [Brivudine] | 17.8 | 
57 | Nc1c(CC(=O)O)cccc1C(=O)c1ccc(Br)cc1 [Bromfenac Sodium] | 8.6 | 
58 | CN(Cc1cc(Br)cc(Br)c1N)C1CCCCC1 [Bromhexine HCl] | 0 | 
59 | CC(C)C(Br)C(=O)NC(N)=O (stereo not drawn) [Bromisoval] | 0 | 
60 | CN(C)CCC(c1ccc(Br)cc1)c1ccccn1 (stereo not drawn) [Brompheniramine hydrogen maleate] | 9.47 | 
61 | O=[N+]([O-])C(Br)(CO)CO [Bronopol] | 0 | 
62 | Oc1c(Br)cc(Br)c2cccnc12 [Broxyquinoline] | 0 | 
63 | COc1cc2c(cc1OC)[C@@]13CCN4CC5=CCO[C@H]6CC(=O)N2[C@H]1[C@H]6[C@H]5C[C@H]43 [Brucine sulfate salt hydrate] | 0 | 
64 | CCOc1ccc(NC(=O)CC(C)O)cc1 (stereo not drawn) [Bucetin] | 2.67 | 
65 | CCCC1O[C@@H]2C[C@H]3[C@@H]4CCC5=CC(=O)C=C[C@]5(C)[C@H]4[C@@H](O)C[C@]3(C)[C@]2(C(=O)CO)O1 (stereo partly drawn) [Budesonide] | 12.3 | 
66 | CCCCOc1ccc(CC(=O)NO)cc1 [Bufexamac] | 14.1 | 
67 | COc1cc(OC)c(C(=O)CCCN2CCCC2)c(OC)c1 [Buflomedil HCl] | 0 | 
68 | CCCCNc1cc(C(=O)O)cc(S(N)(=O)=O)c1Oc1ccccc1 [Bumetanide] | 25.7 | 
69 | CCCCN1CCCCC1C(=O)Nc1c(C)cccc1C (stereo not drawn) [Bupivacaine HCl] | 0 | 
70 | O=C1CC2(CCCC2)CC(=O)N1CCCCN1CCN(c2ncccn2)CC1 [Buspirone HCl] | 7.05 | 
71 | CS(=O)(=O)OCCCCOS(C)(=O)=O [Busulfan] | 0 | 
72 | CCCCOC(=O)c1ccc(N)cc1 [Butamben] | 2.1 | 
73 | CN(Cc1ccc(C(C)(C)C)cc1)Cc1cccc2ccccc12 [Butenafine HCl] | 0 | 
74 | Clc1ccc(CCC(Cn2ccnc2)Sc2c(Cl)cccc2Cl)cc1 (stereo not drawn) [Butoconazole nitrate] |  | 4.358
75 | Clc1ccc(CCC(Cn2ccnc2)Sc2c(Cl)cccc2Cl)cc1 (stereo not drawn) [Butoconazole] |  | 13.63
76 | CCCCOC(=O)c1ccc(O)cc1 [Butylparaben] | 0 | 
77 | CCCC[N+]1(C)[C@@H]2C[C@@H](OC(=O)[C@H](CO)c3ccccc3)C[C@H]1[C@@H]1O[C@@H]12 (stereo partly drawn) [Butylscopolamine Bromide] | 0 | 
78 | NC(=O)c1cc(N2CC2)c([N+](=O)[O-])cc1[N+](=O)[O-] [CB1954] | 5.18 | 

— publication doi:10.1101/2021.10.07.463234v2 (biorxiv, 2021)
